Test results as given in PMC10354055, “An optimized Nurr1 agonist provides disease-modifying effects in Parkinson’s disease models” (Nature Communications, 2023).
Values joined by “and” are separate entries in the source; they are usually repeats but may differ in a detail not shown here. Equal values may be shown once.

Assays:
Type in all cases: cell-based
Nor1 = biological target: T1, Nor1 (Homo sapiens, UniProt Q92570); test: Luciferase reporter assay, Nor1 LBD, SK-N-BE(2)C cells; conditions: Fig. 1f; CQ 100 µM, 4A7C-301 20 µM, PGA1 10 µM
T1 construct: using LBD of NR4A subfamily members in SK-N-BE(2)C cells; expressed in transfected cells; host or cells: SK-N-BE(2)C
T1 sequence (Q92570 394-623 limits assumed): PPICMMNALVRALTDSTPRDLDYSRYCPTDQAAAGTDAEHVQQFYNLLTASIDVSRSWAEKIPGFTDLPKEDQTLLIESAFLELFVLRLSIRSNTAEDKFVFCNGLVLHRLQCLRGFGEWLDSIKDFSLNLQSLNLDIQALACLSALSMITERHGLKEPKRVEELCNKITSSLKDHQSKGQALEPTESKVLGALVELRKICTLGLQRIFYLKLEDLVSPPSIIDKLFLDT

Nurr1-LBD point mutants [1] = biological target: T2, Nurr1-LBD point mutants (Mus musculus, UniProt Q06219); test: Luciferase assay with point-mutants of Nurr1-LBD, SK-N-BE(2)C cells;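 note: Firefly luciferase normalized to beta-galactosidase activity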; conditions: Supplementary Fig. 2, WT
T2 construct: expressed in transfected cells; host or cells: SK-N-BE(2)C
T2 sequence (Q06219 whole entry, change not shown, the tested form may be a part): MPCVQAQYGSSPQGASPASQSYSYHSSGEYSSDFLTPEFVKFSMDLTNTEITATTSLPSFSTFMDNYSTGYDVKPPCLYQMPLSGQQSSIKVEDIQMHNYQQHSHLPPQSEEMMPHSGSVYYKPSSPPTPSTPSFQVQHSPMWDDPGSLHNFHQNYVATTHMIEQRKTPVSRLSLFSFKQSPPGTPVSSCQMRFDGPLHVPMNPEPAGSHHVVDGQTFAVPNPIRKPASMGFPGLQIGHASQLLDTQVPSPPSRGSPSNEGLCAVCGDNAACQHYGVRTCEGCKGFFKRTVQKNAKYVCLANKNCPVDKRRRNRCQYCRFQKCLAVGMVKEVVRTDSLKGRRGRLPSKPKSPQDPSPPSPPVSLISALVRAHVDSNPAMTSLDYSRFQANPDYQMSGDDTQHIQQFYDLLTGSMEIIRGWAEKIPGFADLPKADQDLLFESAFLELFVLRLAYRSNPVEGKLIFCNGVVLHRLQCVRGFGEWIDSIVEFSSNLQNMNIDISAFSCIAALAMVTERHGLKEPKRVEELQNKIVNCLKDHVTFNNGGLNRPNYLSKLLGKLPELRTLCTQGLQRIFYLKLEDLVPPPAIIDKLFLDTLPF
Description: (§1) Nurr1 transactivity was normalized to β-galactosidase activity.
(§2) Nurr1 mutants were generated using the QuikChange ǁ XL site-directed mutagenesis kit (Agilent Technologies) according to the manufacturer’s instruction. Mutagenesis reactions were carried out on the plasmid of mouse Nurr1 cloned into pcDNA3.1 backbone, and then verified by sequencing.

Nurr1-LBD point mutants [2] = biological target: T3, Nurr1-LBD point mutants (Mus musculus, UniProt Q06219, D594A); test: as above; conditions: Supplementary Fig. 2, D594A
T3 construct: expressed in transfected cells; host or cells: SK-N-BE(2)C
T3 sequence (Q06219 whole entry D594A, the tested form may be a part): as the sequence (Q06219 whole entry, change not shown, the tested form may be a part) above, with D594A counted along it
Description: as §1, §2

Nurr1-LBD point mutants [3] = biological target: T4, Nurr1-LBD point mutants (Mus musculus, UniProt Q06219, K590A); test: as above; conditions: Supplementary Fig. 2, K590A
T4 construct: expressed in transfected cells; host or cells: SK-N-BE(2)C
T4 sequence (Q06219 whole entry K590A, the tested form may be a part): as the sequence (Q06219 whole entry, change not shown, the tested form may be a part) above, with K590A counted along it
Description: as §1, §2

Nurr1-LBD point mutants [4] = biological target: T5, Nurr1-LBD point mutants (Mus musculus, UniProt Q06219, L593A); test: as above; conditions: Supplementary Fig. 2, L593A
T5 construct: expressed in transfected cells; host or cells: SK-N-BE(2)C
T5 sequence (Q06219 whole entry L593A, the tested form may be a part): as the sequence (Q06219 whole entry, change not shown, the tested form may be a part) above, with L593A counted along it
Description: as §1, §2

Nurr1-LBD point mutants [5] = biological target: T6, Nurr1-LBD point mutants (Mus musculus, UniProt Q06219, S441A); test: as above; conditions: Supplementary Fig. 2, S441A
T6 construct: expressed in transfected cells; host or cells: SK-N-BE(2)C
T6 sequence (Q06219 whole entry S441A, the tested form may be a part): as the sequence (Q06219 whole entry, change not shown, the tested form may be a part) above, with S441A counted along it
Description: as §1, §2

## CCCCC[C@H](O)/C=C/[C@H]1C=CC(=O)[C@@H]1CCCCCCC(=O)O [PGA1, Prostaglandin A1]
Nor1
  Luciferase activity (fold), Nor1: 8.223 fold and 7.904 fold and 8.304 fold
Nurr1-LBD point mutants [1]
  Luciferase activity (fold): 12.6112 fold and 12.2963 fold and 12.2061 fold
Nurr1-LBD point mutants [2]
  Luciferase activity (fold): 12.291 fold and 11.1318 fold and 11.3674 fold
Nurr1-LBD point mutants [3]
  Luciferase activity (fold): 12.5774 fold and 11.0052 fold and 12.4192 fold
Nurr1-LBD point mutants [4]
  Luciferase activity (fold): 11.666 fold and 12.1821 fold and 11.0369 fold
Nurr1-LBD point mutants [5]
  Luciferase activity (fold): 12.6359 fold and 12.6237 fold and 10.9807 fold
